Measured values: patent US10618900B2, “5-aromatic alkynyl substituted benzamide compound and preparation method, pharmaceutical composition, and use thereof” (SHANGHAI INSTITUTE OF MATERIA MEDICA, CHINESE ACADEMY OF …, priority 2015, dated 2020)

Legend:
mGluR5 = mGluR5 (Homo sapiens (Human), UniProt P41594); experiment: In vitro activity test for mGluR5, HDB Fluo-8 calcium fluorescence detection (FLIPR); type: cell-based; conditions: HEK293/mGluR5 cell line
From the text: Experimental instrument: FLIPR Tetra real-time fluorescence imaging analysis system
Experimental method: HDB Fluo-8 calcium fluorescence detection method
Experimental principle: HDB Fluo-8 calcium ion fluorescence detection method is a fast, simple and reliable fluorescence detection method of intracellular calcium concentration changes. The Fluo 8-AM fluorescent dye is an […] derivative of Fluo 8 which can easily penetrate the cell membrane into the cell by culture. The fluorescent dye into the cell will be hydrolyzed by intracellular esterase, the resulting Fluo 8 cannot easily pass through the lipid bimolecular membrane as a polar molecule, and will retain in the cell, and combine with calcium (Ca^2+) to produce fluoresces.
Cells expressing GPCR receptor protein (mGluR5) were first calibrated with a calcium ion sensitive fluorescent probe and then stimulated with the compound. After stimulation, the activation of the receptor lead to the calcium ion mobilization, and the fluorescent probe captures the calcium ion to induce the fluorescence signal. The signal can be read by a fluorescent plate reader. The fluorescent plate reader contains a sampling head for compound addition, thus enabling the change of the fluorescence value of the compound be read in real time. […]

mGluR1 = mGluR1 (Homo sapiens (Human), UniProt Q13255); experiment: mGluR5/1 selectivity test, HEK293/mGluR1 cell line, Fluo-8 calcium; type: cell-based; conditions: for IC50: HEK293/mGluR1 cell line; for mGluR5/mGluR1: selectivity ratio of IC50 values
mGluR1, sequence (Q13255 19-1194): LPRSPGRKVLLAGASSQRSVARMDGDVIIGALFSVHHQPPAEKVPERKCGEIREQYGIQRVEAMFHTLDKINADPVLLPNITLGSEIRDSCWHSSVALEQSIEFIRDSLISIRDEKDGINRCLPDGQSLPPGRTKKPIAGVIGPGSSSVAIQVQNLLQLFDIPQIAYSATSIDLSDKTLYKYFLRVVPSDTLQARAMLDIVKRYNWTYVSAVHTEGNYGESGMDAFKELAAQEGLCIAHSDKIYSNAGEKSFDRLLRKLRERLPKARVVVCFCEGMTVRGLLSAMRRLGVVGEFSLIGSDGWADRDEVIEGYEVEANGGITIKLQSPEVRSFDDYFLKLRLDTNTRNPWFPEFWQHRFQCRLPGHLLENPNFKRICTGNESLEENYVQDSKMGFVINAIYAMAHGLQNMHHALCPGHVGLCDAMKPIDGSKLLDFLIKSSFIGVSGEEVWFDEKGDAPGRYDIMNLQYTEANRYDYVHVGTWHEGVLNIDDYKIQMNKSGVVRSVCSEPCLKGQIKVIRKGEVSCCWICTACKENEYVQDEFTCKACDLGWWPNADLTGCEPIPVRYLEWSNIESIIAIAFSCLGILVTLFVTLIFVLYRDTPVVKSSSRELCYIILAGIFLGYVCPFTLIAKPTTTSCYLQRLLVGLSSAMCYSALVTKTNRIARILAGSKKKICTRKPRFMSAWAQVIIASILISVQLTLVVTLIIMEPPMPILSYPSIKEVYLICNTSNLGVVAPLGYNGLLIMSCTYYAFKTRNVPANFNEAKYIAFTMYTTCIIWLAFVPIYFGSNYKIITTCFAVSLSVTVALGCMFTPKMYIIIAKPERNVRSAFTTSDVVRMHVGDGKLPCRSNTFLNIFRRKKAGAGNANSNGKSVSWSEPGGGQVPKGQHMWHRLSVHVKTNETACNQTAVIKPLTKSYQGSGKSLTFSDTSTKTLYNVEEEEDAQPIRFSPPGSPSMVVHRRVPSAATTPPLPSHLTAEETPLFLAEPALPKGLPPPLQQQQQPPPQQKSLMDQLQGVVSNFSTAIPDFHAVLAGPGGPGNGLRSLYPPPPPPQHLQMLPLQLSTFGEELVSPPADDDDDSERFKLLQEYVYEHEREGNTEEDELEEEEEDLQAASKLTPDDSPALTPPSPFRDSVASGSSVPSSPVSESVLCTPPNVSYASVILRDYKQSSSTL
From the text: Experimental material: HEK293/mGluR5 cell line, HEK293/mGluR1 cell line, Fluo-8 calcium ion fluorescent dye, positive control JNJ16259685

ICR mice = experiment: Mouse forced swimming experiment; type: in vivo; conditions: positive control, 10 mg/kg intraperitoneal, later 4 min of 6 min
Protocol: Experimental principle: The principle of Mouse Forced Swimming Test (FST) is to allow the mouse to swim in a limited space from which it can not escape, thus inducing animal to non-movement state which reflects the animal's desperate behavior.
Experimental animals: ICR mice, 20-28 g, both male and female
Sample treatment: The test compounds were ground with 1% CMC (sodium carboxymethyl cellulose) aqueous solution to prepare a homogeneous solution. In vivo dose was 5 mg/kg, 10 mg/kg and 20 mg/kg, the compound was oral administered at 0.1 ml/10 g volume/body weight. Positive control drugs (amitriptyline and fluoxetine) were dissolved with 0.9% saline, in vivo dose was 10 mg/kg, administered by intraperitoneal injection at 0.1 ml/10 g volume/body weight. (Note: the mice were fasted for 8 h and drinked water ad libitum before the compound was given.)
Experimental Methods: mice were grouped randomly. […] On the second day of the test, the mice were orally administered the compound. After 1 hour (0.5 hours after intraperitoneal injection), the mice were then put in water to record the immobility time in the later 4 min of 6 min.

mice [1] = experiment: Head twitches test (5-HTP induced); type: in vivo; conditions: positive control, FIG. 2
From the text: Experimental principle: Model Head Thrust Test (HTT) is first raised by Corne et al. in 1963, head twitches syndrome caused by 5-HT receptor excitement may be mediated through the 5-HT2 receptor. The head twitches behavior induced by 5-HTP in mice is more sensitive to antidepressants with different action mechanisms, such as citalopram, fluvoxamine and other 5-HT retake inhibitors, desipramine, maprotiline, nomifensine and other NA retake inhibitors and imipramine acting on both 5-HT and NA system.
Experimental method: 20-24 g male mice were selected. 3 h before the test, 100 mg/kg pargyline was intraperitoneal injected and then intraperitoneal injected with test drugs or saline. 5-HTP (5 mg/kg, ip) was injected 30 min later. After 10 min, the observation was started and the number of mice head twitches in 6 min was recorded. The numbers of the head twitches of experimental group and the saline control group were compared.

mice [2] = experiment: Mouse tail suspension experiment; type: in vivo; conditions: positive control, FIG. 1
From the text: Experimental principle: Tail Suspension Test (TST) is a classic method which can quickly evaluate the efficacy of antidepressant drugs, excitement drugs, and sedative drugs. The principle is to use the status that the mouse give up struggle and enter the unique depression status after the tail was suspended and the attempt to escape was failed.
Experimental method: 20-24 g male mice were selected and the site at 2 cm part from the end of the tail was attached to a horizontal stick, so that the animal entered inverted state, and it's head was about 5 cm from the table, and boards were hung on both sides to separate the animal's sight. The immobility time of the administration group and the control group within 6 min were compared.

mGluR5, sequence (P41594 21-1212): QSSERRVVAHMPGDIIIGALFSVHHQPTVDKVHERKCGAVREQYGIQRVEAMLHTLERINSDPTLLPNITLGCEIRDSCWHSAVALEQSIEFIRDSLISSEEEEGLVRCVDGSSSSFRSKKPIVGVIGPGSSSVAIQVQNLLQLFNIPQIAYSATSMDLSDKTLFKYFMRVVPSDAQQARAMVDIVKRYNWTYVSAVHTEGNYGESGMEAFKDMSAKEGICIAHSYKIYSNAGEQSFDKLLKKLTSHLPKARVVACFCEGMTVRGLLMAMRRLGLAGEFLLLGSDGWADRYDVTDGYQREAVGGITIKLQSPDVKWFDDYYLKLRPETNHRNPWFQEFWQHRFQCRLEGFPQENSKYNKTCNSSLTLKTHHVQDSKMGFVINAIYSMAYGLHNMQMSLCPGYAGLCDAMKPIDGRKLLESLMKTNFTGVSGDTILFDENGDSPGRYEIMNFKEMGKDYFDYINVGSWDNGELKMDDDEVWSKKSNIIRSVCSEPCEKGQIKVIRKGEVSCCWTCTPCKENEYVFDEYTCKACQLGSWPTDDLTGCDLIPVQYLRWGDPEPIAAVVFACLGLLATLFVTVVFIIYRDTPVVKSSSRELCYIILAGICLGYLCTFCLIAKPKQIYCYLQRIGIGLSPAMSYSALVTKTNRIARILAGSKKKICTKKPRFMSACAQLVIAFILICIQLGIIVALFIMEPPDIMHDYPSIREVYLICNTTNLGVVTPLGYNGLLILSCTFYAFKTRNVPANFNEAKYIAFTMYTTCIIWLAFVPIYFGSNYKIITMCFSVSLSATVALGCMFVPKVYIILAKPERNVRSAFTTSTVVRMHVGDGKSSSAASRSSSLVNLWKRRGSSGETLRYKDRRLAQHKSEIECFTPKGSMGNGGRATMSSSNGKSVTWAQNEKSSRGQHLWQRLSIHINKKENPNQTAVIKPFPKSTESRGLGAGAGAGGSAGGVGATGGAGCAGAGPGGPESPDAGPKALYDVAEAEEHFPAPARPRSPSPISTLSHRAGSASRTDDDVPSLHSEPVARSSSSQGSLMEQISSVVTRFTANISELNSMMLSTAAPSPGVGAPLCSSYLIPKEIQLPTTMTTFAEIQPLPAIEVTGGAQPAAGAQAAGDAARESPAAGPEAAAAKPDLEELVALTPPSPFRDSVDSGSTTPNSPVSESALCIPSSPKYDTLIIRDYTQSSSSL

Row | SMILES | IC50 (mGluR5) [nM] | IC50 (mGluR1) [nM] | mGluR5/mGluR1 (mGluR1) | further results
1 | Cc1nc(C#Cc2cccc(C(=O)Nc3cccc(F)c3)c2)cs1 [ZD017, N-(3-fluorophenyl)-3-((2-methylthiazol-4-yl)ethynyl)benzamide] | 133 |  |  | 
2 | COC1CCC(C(=O)c2ccc3nc4c(cc3c2)CCCO4)CC1 (stereo not shown) [JNJ16259685, reference compound] |  |  |  | IC50 (mGluR1; positive control): 91.2 nM
3 | O=C(Nc1ccc(F)cc1)c1cc(C#Cc2ccccn2)ccc1Cl [ZD036, 2-chloro-N-(4-fluorophenyl)-5-(pyridin-2-ethynyl)benzamide] | 20.3 | > 100000 | >4929 | 
4 | Cc1nc(C#Cc2cccc(C(=O)Nc3cccc(C#N)c3)c2)cs1 [ZD019, N-(3-cyanophenyl)-3-((2-methylthiazol-4-yl)ethynyl)benzamide] | 134 |  |  | 
5 | Cc1nc(C#Cc2ccc(Cl)c(C(=O)Nc3ccc(F)cc3)c2)cs1 [ZD037, 2-chloro-N-(4-fluorophenyl)-5-((2-methyl-thiazol-4-yl)ethynyl)benzamide] | 7.31 | > 100000 | >13676 | 
6 | CN(C)CCC=C1c2ccccc2CCc2ccccc21 [amitriptyline, reference compound] |  |  |  | immobility time (%) Mean ± SEM (ICR mice): significantly improve; immobility time (%) Mean ± SEM (ICR mice; listed as CCAmitriptyline): 15.34 ± 5.96 %
7 | O=C(Nc1ccc(F)cc1)c1cc(C#Cc2ccncc2)ccc1F [ZD039, 2-fluoro-N-(4-fluorophenyl)-5-(pyridin-4-ethynyl)benzamide] | 382 |  |  | 
8 | O=C(Nc1ccc(F)cc1)c1cc(C#Cc2ccccn2)ccc1F [ZD001, 2-fluoro-5-(pyridin-2-ethynyl)-N-(4-fluorophenyl)benzamide] | 13.9 | > 100000 | >7194 | 
9 | Cc1nc(C#Cc2cccc(C(=O)N3CCc4ccccc4C3C)c2)cs1 (stereo not shown) [ZD011] | 32.6 |  |  | 
10 | Cc1nc(C#Cc2cccc(C(=O)Nc3ccccc3)c2)cs1 [ZD014] | 14.8 | > 100000 | >6757 | 
11 | Cc1nc(C#Cc2ccc(F)c(C(=O)Nc3ccc(F)cc3)c2)cs1 [ZD004, 2-fluoro-N-(4-fluorophenyl)-5-((2-methyl-thiZaol-4-yl)ethynyl)benzamide] | 11 | > 100000 | >9091 | 
12 | CNCCC(Oc1ccc(C(F)(F)F)cc1)c1ccccc1 (stereo not shown) [Fluoxetine, fluoxetine, reference compound] |  |  |  | number of head twitches (mice [1]): significantly improve; immobility time in the mouse tail suspension test (mice [2]): significantly improve; immobility time (%) Mean ± SEM (ICR mice): 84.79 ± 12.73%
13 | Cc1nc(C#Cc2cccc(C(=O)Nc3ccc(C#N)cc3)c2)cs1 [ZD010, N-(4-cyanophenyl)-3-((2-methylthiazol-4-yl)ethynyl)benzamide] | 86.6 |  |  | 

Further lines, with some results ahead:

Row | IC50 (mGluR5) [nM] | IC50 (mGluR1) [nM] | mGluR5/mGluR1 (mGluR1) | SMILES | further results
14 | 15.2 | > 100000 | >6601 | O=C(c1cc(C#Cc2ccccn2)ccc1F)N1CCc2ccccc2C1 [ZD046, (3,4-dihydro-isoquinolin-2(1H)-yl)(2-fluoro-5-(pyridin-2-ylethynyl)phenyl) methanone] | 
15 | 104 |  |  | Cc1ccc(C#Cc2ccccn2)cc1C(=O)Nc1ccc(F)cc1 [ZD040, N-(4-fluorophenyl)-2-methyl-5-(pyridin-2-ethynyl)benzamide] | 
16 | 6.65 | > 100000 | >15044 | Cc1nc(C#Cc2ccc(F)c(C(=O)N3CCc4ccccc4C3)c2)cs1 [ZD047, (3,4-dihydro-isoquinolin-2(1H)-yl)(2-fluoro-5-((2-methyl-thiazol-4-yl)ethynyl)phenyl)methanone] | 
17 | 71.3 |  |  | CC1c2ccccc2CCN1C(=O)c1cc(C#Cc2ccccn2)ccc1F (stereo not shown) [ZD048, (2-fluoro-5-(pyridin-2-ylethynyl)phenyl) (1-methyl-3,4-dihydro-isoquinolin-2(1H)-yl)methanone] | 
18 | 19.4 | > 100000 | >5155 | O=C(Nc1cccnc1)c1cc(C#Cc2ccccn2)ccc1F [ZD042, 2-fluoro-5-(pyridin-2-ethynyl)-N-(pyridin-3-yl)benzamide] | 
19 | 86.5 |  |  | N#Cc1ccc(NC(=O)c2cc(C#Cc3ccccn3)ccc2F)cc1 [ZD044, N-(4-cyanophenyl)-2-fluoro-5-(pyridin-2-ethynyl)benzamide] | 
20 | 38 | > 100000 | >2632 | Cc1nc(C#Cc2ccc(F)c(C(=O)N3CCc4ccccc4C3C)c2)cs1 (stereo not shown) [ZD049, (2-fluoro-5-((2-methyl-thiazol-4-yl)ethynyl)phenyl)(1-methyl-3,4-dihydro-isoquinolin-2(1H)-yl)methanone] | 
21 | 53.5 |  |  | Cc1nc(C#Cc2ccc(F)c(C(=O)Nc3ccc(C#N)cc3)c2)cs1 [ZD045, N-(4-cyanophenyl)2-fluoro-5-((2-methyl-thiazol-4-yl)ethynyl)benzamide] | 
22 | 108 |  |  | Cc1nc(C#Cc2ccc(C)c(C(=O)Nc3ccc(F)cc3)c2)cs1 [ZD041, N-(4-fluorophenyl)-2-methyl-5-((2-methyl-thiazol-4-yl)ethynyl)benzamide] | 
